Laboratory results published in article PMC8482815, “Targeting Host Glycolysis as a Strategy for Antimalarial Development” (Frontiers in Cellular and Infection Microbiology, 2021).
Entries after “also recorded” stand apart in the source; their conditions may differ. Read-outs that look alike come from different tables or passages of the source.

How the values were obtained:
[1] = tested on: P. falciparum strain 3D7; assay: Plasmodium falciparum growth inhibition assay (Picogreen DNA content, three-day incubation); format: cell-based; conditions: for S.I. + pyruvate (Supplemental Table 4): MetHb EC50 / parasite EC50, with pyruvate; for S.I. - pyruvate (Supplemental Table 4): MetHb EC50 / parasite EC50, without pyruvate; for EC50: Plasmodium falciparum; for S.I. Fold Change (Supplemental Table 4): change in S.I. with versus without pyruvate; for T.I. Fold change: change in T.I. with versus without 1mM pyruvate; for T.I. + pyruvate / T.I. - pyruvate: therapeutic index = [EC50 for MetHb formation]/[EC50 for parasite growth inhibition]; for T.I. + pyruvate: with 1mM pyruvate; for T.I. - pyruvate: without pyruvate
Protocol: (§1) Banked blood (Saint Louis Children’s Hospital) and fresh blood [healthy donors] was washed and stored at 50% hematocrit at 4°C up to 1 month past the clinical expiration date and collection date, respectively. Parasite strains provided by the Malaria Research and Reference Reagent Resource Center (MR4) as follows: 3D7 (MRA-102); K1 (MRA-159); D10 (MRA-201); and IPC-5202 (MRA-1240). Unless indicated, erythrocytes were cultured as previously described at 2% hematocrit in complete media (incomplete media supplemented with 27mM sodium bicarbonate, 11mM glucose, 5mM HEPES, 1mM sodium pyruvate, 0.37mM hypoxanthine, 0.01mM thymidine, 10µg/mL gentamicin, and 0.5% Albumax I (Thermo-Fisher) under 5% O2/5% CO2/90% N2 atmosphere at 37°C ([Guggisberg et al., 2014]).
(§2) Asynchronous cultures diluted to 1% parasitemia in 100μL wells were subjected to drug dilutions, solvent controls, and untreated uninfected erythrocyte controls in technical duplicates. Following a three-day incubation, DNA content was quantified using Picogreen (Life Technologies), as previously described ([Corbett et al., 2004]). Half-maximal effective concentrations (EC50) were determined from nonlinear regression of three biological replicates (GraphPad Prism).

[2] = tested on: P. falciparum K1 (chloroquine and sulfadoxine-pyrimethamine resistant); assay: Plasmodium falciparum growth inhibition assay, drug-resistant line K1; format: cell-based; conditions: K1, read-out: EC50 (nM), P. falciparum K1
Protocol: (§3) Banked blood (Saint Louis Children’s Hospital) and fresh blood [healthy donors] was washed and stored at 50% hematocrit at 4°C up to 1 month past the clinical expiration date and collection date, respectively. Parasite strains provided by the Malaria Research and Reference Reagent Resource Center (MR4) as follows: 3D7 (MRA-102); K1 (MRA-159); D10 (MRA-201); and IPC-5202 (MRA-1240). […]
as §2, with “Prism). […]” for “Prism).”
(§4) Supplemental Table 5. […] Half-maximal inhibitor concentrations (EC50s) were determined for drug resistant malaria parasites and compared to the sensitive 3D7 strain. The respective EC50s are calculated from each of the independent biological replicates using a non-linear regression of the log of the inhibitor concentration with data from each technical replicate normalized to maximal and minimal growth using the software package GraphPad Prism. […]
(§5) means ± s.e.m calculated from three biological replicates.

[3] = tested on: P. falciparum D10 (mefloquine resistant); assay: Plasmodium falciparum growth inhibition assay, drug-resistant line D10; format: cell-based; conditions: D10, read-out: EC50 (nM), P. falciparum D10
Protocol: as §3
as §2, with “Prism). […]” for “Prism).”
as §4, §5

[4] = tested on: P. falciparum IPC-5202 (chloroquine and artemisinin resistant); assay: Plasmodium falciparum growth inhibition assay, drug-resistant line IPC-5202; format: cell-based; conditions: read-out: EC50 (nM), P. falciparum IPC-5202
Protocol: as §3
as §2, with “Prism). […]” for “Prism).”
as §4, §5

[5] = tested on: human erythrocytes; assay: Detection and quantification of MetHb formation in cultured erythrocytes; format: cell-based; conditions: Homo sapiens, Erythrocyte
Protocol: as §1
MetHb was detected by measuring absorbance in the 630-640nm range, which is specific from other hemoglobin subforms (oxyhemoglobin, deoxyhemoglobin, and carboxyhemoglobin). Supernatants were removed and erythrocyte pellets were fully lysed and diluted, as described above. The absorption peak for oxyhemoglobin (575nm) and MetHb (630nm) were measured and the EC50 of MetHb formation was determined using non-linear regression analysis (GraphPad Prism).

[6] = tested on: P. berghei ANKA; format: in vivo, Swiss Webster mice
Protocol: (§6) Groups of five female Swiss-Webster mice were injected intraperitoneally (i.p.) with 10^3 luciferase-expressing P. berghei ANKA parasites ([Franke-Fayard et al., 2008]). Forty-eight hours post infection, mice were injected i.p. daily for five days with either 200µL of 2% methylcellulose/0.5% Tween80, 40mg/kg chloroquine, 100mg/kg HEX, 30mg/kg POM-HEX, or 5mg/kg POM-SF. Enolase inhibitors dosing were selected as approximately 3-fold lower than the maximum acutely tolerated dose for each compound by i.p. injection. Day 7 post-infection, mice were injected with 150mg/kg D-luciferin potassium salt in PBS (GoldBio) and imaged on an IVIS 100 and parasite burden assessed (Xenogen LivingImage).
The glucose mimetic 2-DG and enolase inhibitors POM-HEX, and HEX were evaluated in the P. berghei mouse model of cerebral malarial, as previously described ([Wang et al., 2018]). Briefly, in addition to groups of mice (n = 5) dosed as described above for POM-HEX and HEX, 2-DG was administered to an additional group (n = 5) at 200mg/kg twice daily and all were monitored for survival, parasitemia (blood smear Giemsa), and clinical signs of cerebral malaria (paralysis, deviation of the head, ataxia, convulsions, and coma) over 15 days.

[7] = tested on: luciferase-expressing P. berghei ANKA parasites; assay: In vivo efficacy against blood stage parasite burden (luciferase imaging); parameters: species or system Swiss-Webster mice; conditions: i.p. daily for five days; 30mg/kg POM-HEX, 5mg/kg POM-SF
Protocol: as §6

[8] = parameters: method as in Lin et al., 2020; conditions: ref Lin et al., 2020; cited from earlier work
[9] = Pharmacokinetics of HEX in non-human primates (plasma, NMR 31P-1H HSQC); format: in vivo, cynomolgus monkeys (Macaca fascicularis)
Protocol: (§7) Adult male cynomolgus monkeys (Macaca fascicularis) with weight of 2.5-3.5 kg were used for PK studies (n = 1). To prepare HEX for injection, a stock solution of 150 mg/mL HEX in water with final pH of 7.2-7.4 was prepared. Just prior to injection, this stock was diluted with saline to desired concentration and filtered with 0.22 µm filter. A dose of 100 mg/Kg of HEX was injected subcutaneously in an overnight fasted monkey. Blood samples were collected at the following time points: before injection, 1 hr, 2 hrs, 4 hrs (when food was also given to a monkey), 8 hrs, and 24 hrs after injection. Also, a dose of 400 mg/Kg of HEX was administrated through oral gavage. To compare the PK studies in non-human primates with rodents, a 400 mg/kg dose of HEX was also injected subcutaneously in female mice (n = 1), and blood was collected before, 1 hr, and 2 hrs after injection. HEX concentrations in plasma were measured by using nuclear magnetic resonance (NMR) spectroscopy. Two hundred microliters of plasma were extracted with four hundred microliters of −20°C precooled methanol and incubated in −20°C for 45 minutes followed by spinning down in 4°C at 17,000 × g for 30 min to separate supernatant. The supernatant then was concentrated by speedvac for 4 hours and dissolved in 470 μL D2O (Sigma Aldrich,151882) and 30 μL D2O with 3%TPS as an internal standard (Sigma Aldrich, 450510) for NMR studies. NMR experiments were performed on Bruker Avance III HD 500 MHz spectrometer equipped with cryoprobe and Bruker 300 MHz with broad band observe probe. […] NMR spectra were analyzed using 3.1 version of TopSpin. HEX was quantified in the sample with high concentration of the drug (100 mpk, 1 hr after SC injection) by comparing integrals of HEX and TSP (reference) in 1H spectra. […]

[10] = Pharmacokinetics of HEX in mice (plasma, NMR 31P-1H HSQC); format: in vivo
Protocol: as §7

[11] = parameters: method as in Lin et al., 2020; conditions: cynomolgus monkeys, 100 mpk SC; replotted, ref Lin et al., 2020; cited from earlier work

**Q.** Which results are given for `CC(C)(C)C(=O)OCOP(=O)(OCOC(=O)C(C)(C)C)C1CCCN(O)C1=O` (stereo not drawn) [POM-HEX]?
**A.** S.I. + pyruvate (Supplemental Table 4) [1]: 1.5; S.I. - pyruvate (Supplemental Table 4) [1]: 0.4; EC50 ([1]; 3D7, 72 h, P. falciparum growth, presence of 1mM pyruvate, mean ± s.e.m., read-out: Parasite EC50 + pyruvate): 0.91 ± 0.15 µM; EC50 ([1]; 3D7, P. falciparum growth, absence of 1mM pyruvate, mean ± s.e.m., 500 = highest concentration tested, EC50 not resolved, read-out: Parasite EC50 - pyruvate): 2.9 ± 0.64 µM; S.I. Fold Change (Supplemental Table 4) [1]: 3.7; T.I. Fold change [1]: 3.7; T.I. + pyruvate [1]: 1.5; T.I. - pyruvate [1]: 0.4; EC50 [2]: 1110 ± 530 nM; EC50 [3]: 1430 ± 540 nM; EC50 [4]: 966 ± 442 nM; EC50 ([5]; MetHb formation, absence of 1mM pyruvate, mean ± s.e.m., 500 = highest concentration tested, EC50 not resolved, read-out: MetHb EC50 - pyruvate): 1.2 ± 0.19 µM; EC50 ([5]; MetHb formation, presence of 1mM pyruvate, mean ± s.e.m., 500 = highest concentration tested, EC50 not resolved, read-out: MetHb EC50 + pyruvate): 1.4 ± 0.11 µM; effect on clinical score, overall survival, cerebral malaria (in words) ([6]; 2DG 200 mg/kg, POM-HEX 30 mg/kg): no more effective than 2-DG; also recorded: does not prevent cerebral malaria; effect on parasite burden (in words) [7]: does not forestall a lethal parasite burden; conversion in mouse plasma (in words) [8]: rapidly converted to Hemi-POM-HEX

**Q.** Which “S.I. + pyruvate (Supplemental Table 4)” value [1] does the source give for `O=C1C(P(=O)(O)O)CCCN1O` (stereo not drawn) [HEX] here?
**A.** 27.8

**Q.** And the “S.I. - pyruvate (Supplemental Table 4)” value [1]?
**A.** 26.3

**Q.** What about the EC50 ([1]; 3D7, read-out: Parasite EC50 - pyruvate) of the same compound?
**A.** 19 ± 1 µM

**Q.** And the EC50 ([1]; 3D7, read-out: half maximal effective concentrations (EC50s), parasite growth)?
**A.** > 15 µM

**Q.** What about the “S.I. Fold Change (Supplemental Table 4)” value [1] of the same compound?
**A.** 1.1

**Q.** And the “T.I. Fold change” value [1]?
**A.** 1.1

**Q.** What about the “selectivity for antiparasitic activity over erythrocyte toxicity (in words)” value ([1]; parasite growth versus MetHb formation) of the same compound?
**A.** notably selective

**Q.** And the “T.I. + pyruvate” value [1]?
**A.** 27.8

**Q.** And the T.I. - pyruvate [1]?
**A.** 26.3

**Q.** What about the EC50 ([5]; read-out: MetHb EC50 + pyruvate (Supplemental Table 4)) of the same compound?
**A.** > 500 µM

**Q.** What about the EC50 ([5]; read-out: MetHb EC50 - pyruvate) of the same compound?
**A.** > 500 µM

**Q.** And the EC50 ([5]; read-out: MetHb EC50 - pyruvate (Supplemental Table 4))?
**A.** > 500 µM

**Q.** And the survival ([6]; HEX 100 mg/kg daily from day 2, Mantel-Cox)?
**A.** 14 days

**Q.** What about the parasitemia ([6]; d4, blood smear Giemsa, treated from day 2, HEX 100 mg/kg, 2DG 200 mg/kg, control 7.8±3.3%) of the same compound?
**A.** 3.5±1.3%

**Q.** What about the “clinical scores (signs of cerebral malaria)” value ([6]; d6, HEX 100 mg/kg, vehicle 15.0±7.3) of the same compound?
**A.** 3.8±2.0

**Q.** What about the “mice alive on day 15” value ([6]; n=5, HEX 100 mg/kg, sacrificed due to high parasitemia and elevated clinical score) of the same compound?
**A.** two mice remained alive

**Q.** What about the half-life ([9]; monkey, 100 mg/kg sub-cutaneous, serum/plasma, 100 mg/kg) of the same compound?
**A.** ~ 1 hr

**Q.** And the “oral bioavailability (in words)” value ([9]; monkey, 400 mpk by oral gavage)?
**A.** orally bioavailable

**Q.** And the “time serum concentrations remain above the in vitro EC50 concentrations against Plasmodium” value ([9]; non-human primates, 100mg/kg sub-cutaneous)?
**A.** at least four hours

**Q.** And the “HEX concentration in plasma, 2 hr time point” value ([10]; 400 mg/kg dose SC, detection limit ~1 µM)?
**A.** undetectable

**Q.** And the serum half-life ([10]; 400mg/kg sub-cutaneous)?
**A.** minutes

**Q.** What about the concentration at 1 hr ([10]; female, mouse, plasma, 400 mg/kg dose SC, read-out: HEX concentration in plasma, 1hr after injection) of the same compound?
**A.** ~170 µM

**Q.** And the “plasma concentrations at 1hr” value [11]?
**A.** > 500 µM
